{"source": "patent US20250351832A1", "about": "“PHYTOCHEMICALS AS BIOPESTICIDES AND BIOSTIMULANTS” (KAY BEE BIO ORGANICS PVT. LTD., priority 2024, published 2025)", "key": {"Mite [1]": {"test_system": "Mite", "settings": "mite on okra plants, green house, dose 1 ml/gm/lit. spray"}, "Mite [2]": {"test_system": "Mite", "settings": "Dose 1 ml/gm/lit."}, "Mealy Bug [3]": {"test_system": "Mealy Bug", "settings": "Mealy Bug on cotton leaves, dose 1 ml/gm/lit., 48 Hrs."}, "Spodoptera litura [4]": {"test_system": "Spodoptera litura", "settings": "Spodoptera litura 3rd instar on cabbage plants, dose 1 ml/gm/lit. spray"}, "[5]": {"settings": "Table 13, descriptive; no test described; cited from earlier work"}, "Helicoverpa armigera [6]": {"test_system": "Helicoverpa armigera", "settings": "Helicoverpa armigera on okra fruits, dose 1 ml/gm/lit., 72 Hrs."}, "Alternaria alternata [7]": {"test_system": "Alternaria alternata", "test": "In vitro poisoned food technique against fungus (Ex. 20)", "assay_type": "cell-based", "settings": "poisoned food technique, PDA medium, dose 1 ml/gm/lit., after seven days"}, "Alternaria alternata [8]": {"test_system": "Alternaria alternata", "test": "Alternaria leaf spot/blight on inoculated tomato plants (Ex. 28)", "assay_type": "in vivo", "settings": "tomato plants, Alternaria alternata; after 7 days; dose 1 ml/gm/lit"}, "Aphid [9]": {"test_system": "Aphid", "settings": "Aphids on cotton plants, green house, dose 1 ml/gm/lit."}, "Spodoptera litura [10]": {"test_system": "Spodoptera litura", "settings": "Spodoptera litura on castor leaves, dose 1 ml/gm/lit."}, "Helicoverpa armigera [11]": {"test_system": "Helicoverpa armigera", "settings": "Helicoverpa armigera 3rd instar on chickpea plants, dose 1 ml/gm/lit. spray"}, "Thrips [12]": {"test_system": "Thrips", "settings": "thrips on cotton plants, greenhouse, dose 1 ml/gm/lit. spray"}, "Aphid [13]": {"test_system": "Aphid", "settings": "Dose 1 ml/gm/lit."}, "chili seedlings": {"test_system": "chili seedlings", "test": "Response of chili plants, greenhouse growth (Ex. 31)", "assay_type": "in vivo", "settings": "chili seedlings, dose 1 ml/gm/lit"}, "tomato seedlings": {"test_system": "tomato seedlings", "test": "Response of tomato plants, greenhouse growth (Ex. 30)", "assay_type": "in vivo", "settings": "tomato seedlings, dose 1 ml/gm/lit"}, "Thrips [14]": {"test_system": "Thrips", "settings": "Thrips on cotton leaves, dose 1 ml/gm/lit."}, "Mealy Bug [15]": {"test_system": "Mealy Bug", "settings": "mealy bug on cotton plants, green house, dose 1 ml/gm/lit. spray"}, "[16]": {"settings": "48 hrs, corrected for water control"}, "[17]": {"settings": "10 insects/treatment, 4 replications"}, "[18]": {"settings": "72 hrs, corrected for water control"}}, "note": "Where two headings read alike, the source gives them in different places."}
{"substance": "Parthenin", "values": [{"measurement": "% Mortality at 48 Hrs.", "setting": "Mite [1]; 48 hrs after application", "value": 22.50, "unit": "%"}, {"measurement": "Total No. of dead insect at 48 Hrs.", "setting": "Mite [1]; 48 hrs after application", "value": 22.50}, {"measurement": "% Corrected Mortality at 48 Hrs.", "setting": "Mite [1]; [16]", "value": 18.42, "unit": "%"}, {"measurement": "Total No. of dead insect at 48 Hrs.", "setting": "Mite [2]; 10 insects/treatment, 4 replications, okra leaves", "value": 3.25}, {"measurement": "% Corrected Mortality at 48 Hrs.", "setting": "Mite [2]; 48 hrs", "value": 27.03, "unit": "%"}, {"measurement": "% Mortality at 48 Hrs.", "setting": "Mite [2]; 48 hrs", "value": 32.50, "unit": "%"}, {"measurement": "Total No. of dead insect at 48 Hrs.", "setting": "Mealy Bug [3]; [17]", "value": 4.75}, {"measurement": "% Mortality at 48 Hrs.", "setting": "Mealy Bug [3]", "value": 47.50, "unit": "%"}, {"measurement": "% Corrected Mortality at 48 Hrs.", "setting": "Mealy Bug [3]; corrected for water control", "value": 44.74, "unit": "%"}, {"measurement": "% Mortality at 72 Hrs.", "setting": "Spodoptera litura [4]; 72 hrs after application", "value": 27.50, "unit": "%"}, {"measurement": "% Corrected Mortality at 72 Hrs.", "setting": "Spodoptera litura [4]; [18]", "value": 23.68, "unit": "%"}, {"measurement": "Antioxidant Activity - Mode of action", "setting": "[5]", "value": "Possesses antioxidant"}, {"measurement": "Insecticidal Activities - Mode of action", "setting": "[5]", "value": "Antifeedant activity against"}, {"measurement": "Total No. of dead insect at 72 Hrs.", "setting": "Helicoverpa armigera [6]; [17]", "value": 3.25}, {"measurement": "% Mortality at 72 Hrs.", "setting": "Helicoverpa armigera [6]", "value": 32.50, "unit": "%"}, {"measurement": "% Corrected Mortality at 72 Hrs.", "setting": "Helicoverpa armigera [6]; corrected for water control", "value": 32.50, "unit": "%"}, {"measurement": "Mean colony Diameter (mm)", "setting": "Alternaria alternata [7]", "value": 78.00, "unit": "mm"}, {"measurement": "% Inhibition of growth", "setting": "Alternaria alternata [7]; vs untreated control", "value": 11.36, "unit": "%"}, {"measurement": "% Disease reduction over Control", "setting": "Alternaria alternata [8]", "value": 43.80, "unit": "%"}, {"measurement": "Total No. of dead insect at 48 Hrs.", "setting": "Aphid [9]; 10 insects/plant, 10 plants/treatment, 48 hrs", "value": 57.50}, {"measurement": "% Mortality at 48 Hrs.", "setting": "Aphid [9]; 48 hrs after application", "value": 57.50, "unit": "%"}, {"measurement": "% Corrected Mortality at 48 Hrs.", "setting": "Aphid [9]; [16]", "value": 50.00, "unit": "%"}, {"measurement": "Total No. of dead insect at 72 Hrs.", "setting": "Spodoptera litura [10]; 10 insects/treatment, 72 hrs after application", "value": 2.75}, {"measurement": "% Mortality at 72 Hrs.", "setting": "Spodoptera litura [10]; 72 hrs after application", "value": 27.50, "unit": "%"}, {"measurement": "% Corrected Mortality at 72 Hrs.", "setting": "Spodoptera litura [10]; [18]", "value": 23.68, "unit": "%"}, {"measurement": "% Mortality at 72 Hrs.", "setting": "Helicoverpa armigera [11]; 72 hrs after application", "value": 35.00, "unit": "%"}, {"measurement": "% Corrected Mortality at 72 Hrs.", "setting": "Helicoverpa armigera [11]; [18]", "value": 35.00, "unit": "%"}, {"measurement": "% Mortality at 48 Hrs.", "setting": "Thrips [12]; 48 hrs after application", "value": 45.00, "unit": "%"}, {"measurement": "Total No. of dead insect at 48 Hrs.", "setting": "Thrips [12]; 48 hrs after application", "value": 45.00}, {"measurement": "% Corrected Mortality at 48 Hrs.", "setting": "Thrips [12]; [16]", "value": 38.89, "unit": "%"}, {"measurement": "Total No. of dead insect at 48 Hrs.", "setting": "Aphid [13]; 10 insects/treatment, 4 replications, cotton leaves", "value": 6.00}, {"measurement": "% Corrected Mortality at 48 Hrs.", "setting": "Aphid [13]; 48 hrs", "value": 54.29, "unit": "%"}, {"measurement": "% Mortality at 48 Hrs.", "setting": "Aphid [13]; 48 hrs", "value": 60.00, "unit": "%"}, {"measurement": "CCI 5th Day", "setting": "chili seedlings; 5th day after application", "value": 14.50}, {"measurement": "Plant Height (cm) 5th Day", "setting": "chili seedlings; 5th day after application", "value": 6.13, "unit": "cm"}, {"measurement": "CCI % Increase over pre on 10th Day", "setting": "chili seedlings; 10th day", "value": 74.40, "unit": "%"}, {"measurement": "Plant Height % Increase over pre on 10th Day", "setting": "chili seedlings; 10th day", "value": 52.29, "unit": "%"}, {"measurement": "Root Lenght (cm) 10th Day", "setting": "chili seedlings; 10th day", "value": 3.12, "unit": "cm"}, {"measurement": "Stem Girth % Increase over pre on 10th Day", "setting": "chili seedlings; 10th day", "value": 38.18, "unit": "%"}, {"measurement": "CCI 10th Day", "setting": "chili seedlings; 10th day after application", "value": 15.87}, {"measurement": "Plant Height (cm) 10th Day", "setting": "chili seedlings; 10th day after application", "value": 6.65, "unit": "cm"}, {"measurement": "Root Lenght % Increase over control", "setting": "chili seedlings; 10th day, vs water control", "value": 14.01, "unit": "%"}, {"measurement": "CCI Pre", "setting": "chili seedlings; pre-application baseline", "value": 9.10}, {"measurement": "Plant Height (cm) Pre", "setting": "chili seedlings; pre-application baseline", "value": 4.37, "unit": "cm"}, {"measurement": "Plant Height 5th Day", "setting": "tomato seedlings; 5th day after application", "value": 6.64, "unit": "cm"}, {"measurement": "Stem Girth 5th Day", "setting": "tomato seedlings; 5th day after application", "value": 1.66, "unit": "mm"}, {"measurement": "Plant Height 10th Day", "setting": "tomato seedlings; 10th day after application", "value": 7.29, "unit": "cm"}, {"measurement": "Stem Girth 10th Day", "setting": "tomato seedlings; 10th day after application", "value": 2.22, "unit": "mm"}, {"measurement": "Plant Height % Increase over pre on 10th Day", "setting": "tomato seedlings; 10th day", "value": 29.95, "unit": "%"}, {"measurement": "Stem Girth % Increase over pre on 10th Day", "setting": "tomato seedlings; 10th day", "value": 55.53, "unit": "%"}, {"measurement": "Plant Height Pre", "setting": "tomato seedlings; before application", "value": 5.61, "unit": "cm"}, {"measurement": "Stem Girth Pre", "setting": "tomato seedlings; before application", "value": 1.43, "unit": "mm"}, {"measurement": "CCI 5th Day", "setting": "tomato seedlings; 5th day after application", "value": 13.95}, {"measurement": "CCI % Increase over pre on 10th Day", "setting": "tomato seedlings; 10th day", "value": 20.70, "unit": "%"}, {"measurement": "Root Length (cm) 10th Day", "setting": "tomato seedlings; 10th day", "value": 4.05, "unit": "cm"}, {"measurement": "CCI 10th Day", "setting": "tomato seedlings; 10th day after application", "value": 14.87}, {"measurement": "Root Length % Increase over control", "setting": "tomato seedlings; 10th day, vs water control", "value": 21.63, "unit": "%"}, {"measurement": "CCI Pre", "setting": "tomato seedlings; pre-application baseline", "value": 12.32}, {"measurement": "Total No. of dead insect at 48 Hrs.", "setting": "Thrips [14]; 10 insects/treatment, 48 hrs after application", "value": 4.75}, {"measurement": "% Mortality at 48 Hrs.", "setting": "Thrips [14]; 48 hrs after application", "value": 47.50, "unit": "%"}, {"measurement": "% Corrected Mortality at 48 Hrs.", "setting": "Thrips [14]; [16]", "value": 40.00, "unit": "%"}, {"measurement": "% Mortality at 48 Hrs.", "setting": "Mealy Bug [15]; 48 hrs after application", "value": 50.00, "unit": "%"}, {"measurement": "Total No. of dead insect at 48 Hrs.", "setting": "Mealy Bug [15]; 48 hrs after application", "value": 50.00}, {"measurement": "% Corrected Mortality at 48 Hrs.", "setting": "Mealy Bug [15]; [16]", "value": 44.44, "unit": "%"}]}
